Source: the NIST ThermoML archive (doi:10.1016/j.fluid.2013.06.017)
Numbers after ± are expanded uncertainties.

Details: Liquid, Closed cell (Static) method

Structure (SMILES) | vapor or sublimation pressure (258.15 K) [kPa] | vapor or sublimation pressure (268.15 K) [kPa] | vapor or sublimation pressure (278.15 K) [kPa] | vapor or sublimation pressure (288.15 K) [kPa]
CC(F)F [1,1-difluoroethane] | 148.6 ± 1 | 219.4 ± 1.1 | 314.1 ± 1.1 | 437.8 ± 1.2
F/C=C/C(F)(F)F [trans-1,3,3,3-tetrafluoropropene] | 120.2 ± 1 | 179.3 ± 1 | 259.2 ± 1.1 | 364.2 ± 1.1
